{"source": "ChEMBL document CHEMBL5696442", "about": "“Discovery of type II inhibitors of TGFβ-activated kinase 1 (TAK1) and mitogen-activated protein kinase kinase kinase kinase 2 (MAP4K2)” (J Med Chem, 2015)", "key": {"[1]": {"target": "Tyrosine-protein kinase receptor UFO (Homo sapiens) (UniProt P30530)", "test": "Inhibition of AXL (unknown origin) at 1 uM by Ambit Kinomescan binding assay relative to control; values are per cent of control"}, "[2]": {"target": "Serine/threonine-protein kinase VRK2 (Homo sapiens) (UniProt Q86Y07)", "sequence (Q86Y07 whole entry)": "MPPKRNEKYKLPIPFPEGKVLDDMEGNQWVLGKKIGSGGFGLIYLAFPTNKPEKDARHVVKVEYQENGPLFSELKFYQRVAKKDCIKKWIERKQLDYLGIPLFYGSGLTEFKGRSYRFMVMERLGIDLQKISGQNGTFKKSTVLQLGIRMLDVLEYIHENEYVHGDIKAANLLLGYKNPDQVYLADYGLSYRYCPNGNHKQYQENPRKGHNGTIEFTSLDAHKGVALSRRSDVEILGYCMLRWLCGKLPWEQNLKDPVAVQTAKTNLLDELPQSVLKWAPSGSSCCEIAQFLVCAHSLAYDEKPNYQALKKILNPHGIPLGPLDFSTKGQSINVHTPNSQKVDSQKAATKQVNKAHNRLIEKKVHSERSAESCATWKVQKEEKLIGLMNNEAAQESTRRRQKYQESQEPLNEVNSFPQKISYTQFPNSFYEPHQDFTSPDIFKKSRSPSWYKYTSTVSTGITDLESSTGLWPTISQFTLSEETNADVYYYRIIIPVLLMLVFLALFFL", "test": "Inhibition of VRK2 Lys2 labeling site in human A-375 cells at 0.5 uM by KiNativ Profiling analysis relative to control", "assay_type": "cell-based"}, "[3]": {"target": "Tyrosine-protein kinase JAK1 (Homo sapiens) (UniProt P23458)", "sequence (P23458 whole entry, the tested form may be a part)": "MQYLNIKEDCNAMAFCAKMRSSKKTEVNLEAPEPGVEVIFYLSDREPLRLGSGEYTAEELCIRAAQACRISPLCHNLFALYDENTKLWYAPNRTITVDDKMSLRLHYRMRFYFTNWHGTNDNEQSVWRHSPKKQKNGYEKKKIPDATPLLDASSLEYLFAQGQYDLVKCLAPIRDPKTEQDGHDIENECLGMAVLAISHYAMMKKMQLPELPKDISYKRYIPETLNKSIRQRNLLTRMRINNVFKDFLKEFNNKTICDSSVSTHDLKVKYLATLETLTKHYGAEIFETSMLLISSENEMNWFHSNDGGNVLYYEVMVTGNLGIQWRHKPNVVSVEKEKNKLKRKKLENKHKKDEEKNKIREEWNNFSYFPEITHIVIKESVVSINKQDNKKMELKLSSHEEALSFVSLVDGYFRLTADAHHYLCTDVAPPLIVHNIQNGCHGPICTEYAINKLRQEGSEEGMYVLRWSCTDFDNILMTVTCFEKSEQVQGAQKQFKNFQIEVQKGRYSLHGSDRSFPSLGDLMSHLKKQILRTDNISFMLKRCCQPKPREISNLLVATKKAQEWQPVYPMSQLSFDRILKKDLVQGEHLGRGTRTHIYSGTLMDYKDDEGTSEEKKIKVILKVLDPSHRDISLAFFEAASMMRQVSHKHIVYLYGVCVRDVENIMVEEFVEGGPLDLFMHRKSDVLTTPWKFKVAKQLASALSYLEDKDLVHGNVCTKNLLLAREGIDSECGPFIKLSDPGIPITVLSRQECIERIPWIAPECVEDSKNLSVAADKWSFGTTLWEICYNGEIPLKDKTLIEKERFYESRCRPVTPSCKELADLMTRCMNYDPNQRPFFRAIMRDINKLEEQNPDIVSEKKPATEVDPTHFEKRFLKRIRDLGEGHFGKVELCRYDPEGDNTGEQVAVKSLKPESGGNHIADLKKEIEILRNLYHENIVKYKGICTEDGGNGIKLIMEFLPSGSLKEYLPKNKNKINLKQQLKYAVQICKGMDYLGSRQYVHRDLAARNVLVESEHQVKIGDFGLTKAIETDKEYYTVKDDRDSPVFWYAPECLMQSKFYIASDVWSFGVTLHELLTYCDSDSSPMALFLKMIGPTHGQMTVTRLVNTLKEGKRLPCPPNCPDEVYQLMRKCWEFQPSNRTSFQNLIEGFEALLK", "test": "Inhibition of JAK1 JH1 catalytic domain (unknown origin) at 10 uM by Ambit Kinomescan binding assay relative to control"}, "[4]": {"target": "T1, Mitogen-activated protein kinase kinase kinase 5 (Homo sapiens) (UniProt Q99683)", "T1 sequence (whole entry)": "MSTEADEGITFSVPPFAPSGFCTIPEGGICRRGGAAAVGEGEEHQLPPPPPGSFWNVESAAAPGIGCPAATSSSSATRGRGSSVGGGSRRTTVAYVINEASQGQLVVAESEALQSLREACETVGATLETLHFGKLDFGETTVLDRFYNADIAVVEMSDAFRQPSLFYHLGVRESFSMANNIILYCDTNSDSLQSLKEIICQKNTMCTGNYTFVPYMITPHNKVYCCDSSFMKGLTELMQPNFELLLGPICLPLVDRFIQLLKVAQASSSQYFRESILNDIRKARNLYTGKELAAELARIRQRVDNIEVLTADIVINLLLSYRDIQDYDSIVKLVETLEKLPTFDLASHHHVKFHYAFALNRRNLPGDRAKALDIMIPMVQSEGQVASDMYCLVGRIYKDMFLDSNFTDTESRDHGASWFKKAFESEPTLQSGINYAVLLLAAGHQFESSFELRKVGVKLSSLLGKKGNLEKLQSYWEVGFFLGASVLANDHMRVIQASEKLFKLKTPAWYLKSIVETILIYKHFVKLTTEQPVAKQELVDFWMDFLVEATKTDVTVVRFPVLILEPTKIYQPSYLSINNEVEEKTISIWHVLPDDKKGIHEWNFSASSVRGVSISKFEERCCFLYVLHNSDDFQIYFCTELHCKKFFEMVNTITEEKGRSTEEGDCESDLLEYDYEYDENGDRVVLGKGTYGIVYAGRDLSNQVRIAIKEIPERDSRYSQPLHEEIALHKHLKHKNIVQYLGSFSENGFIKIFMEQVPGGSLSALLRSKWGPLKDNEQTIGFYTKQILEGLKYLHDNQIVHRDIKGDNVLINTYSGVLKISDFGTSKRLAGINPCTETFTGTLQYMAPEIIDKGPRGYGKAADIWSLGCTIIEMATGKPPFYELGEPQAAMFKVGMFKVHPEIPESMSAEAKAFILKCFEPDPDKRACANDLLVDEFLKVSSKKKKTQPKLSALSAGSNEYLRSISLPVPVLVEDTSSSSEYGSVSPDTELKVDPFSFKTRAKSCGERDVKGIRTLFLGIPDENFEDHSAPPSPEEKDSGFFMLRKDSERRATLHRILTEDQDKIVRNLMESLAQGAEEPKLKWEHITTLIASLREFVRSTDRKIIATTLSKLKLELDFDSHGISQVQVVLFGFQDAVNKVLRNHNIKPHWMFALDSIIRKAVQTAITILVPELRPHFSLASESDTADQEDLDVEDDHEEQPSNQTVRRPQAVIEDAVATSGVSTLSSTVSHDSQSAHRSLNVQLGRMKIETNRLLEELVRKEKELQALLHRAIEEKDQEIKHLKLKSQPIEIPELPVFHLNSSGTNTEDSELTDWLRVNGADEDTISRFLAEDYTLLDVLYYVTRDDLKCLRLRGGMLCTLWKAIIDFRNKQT", "test": "Inhibition of ASK1 (unknown origin) at 10 uM by Ambit Kinomescan binding assay"}, "[5]": {"target": "Serine/threonine-protein kinase N1 (Homo sapiens) (UniProt Q16512)", "sequence (Q16512 2-942 limits assumed)": "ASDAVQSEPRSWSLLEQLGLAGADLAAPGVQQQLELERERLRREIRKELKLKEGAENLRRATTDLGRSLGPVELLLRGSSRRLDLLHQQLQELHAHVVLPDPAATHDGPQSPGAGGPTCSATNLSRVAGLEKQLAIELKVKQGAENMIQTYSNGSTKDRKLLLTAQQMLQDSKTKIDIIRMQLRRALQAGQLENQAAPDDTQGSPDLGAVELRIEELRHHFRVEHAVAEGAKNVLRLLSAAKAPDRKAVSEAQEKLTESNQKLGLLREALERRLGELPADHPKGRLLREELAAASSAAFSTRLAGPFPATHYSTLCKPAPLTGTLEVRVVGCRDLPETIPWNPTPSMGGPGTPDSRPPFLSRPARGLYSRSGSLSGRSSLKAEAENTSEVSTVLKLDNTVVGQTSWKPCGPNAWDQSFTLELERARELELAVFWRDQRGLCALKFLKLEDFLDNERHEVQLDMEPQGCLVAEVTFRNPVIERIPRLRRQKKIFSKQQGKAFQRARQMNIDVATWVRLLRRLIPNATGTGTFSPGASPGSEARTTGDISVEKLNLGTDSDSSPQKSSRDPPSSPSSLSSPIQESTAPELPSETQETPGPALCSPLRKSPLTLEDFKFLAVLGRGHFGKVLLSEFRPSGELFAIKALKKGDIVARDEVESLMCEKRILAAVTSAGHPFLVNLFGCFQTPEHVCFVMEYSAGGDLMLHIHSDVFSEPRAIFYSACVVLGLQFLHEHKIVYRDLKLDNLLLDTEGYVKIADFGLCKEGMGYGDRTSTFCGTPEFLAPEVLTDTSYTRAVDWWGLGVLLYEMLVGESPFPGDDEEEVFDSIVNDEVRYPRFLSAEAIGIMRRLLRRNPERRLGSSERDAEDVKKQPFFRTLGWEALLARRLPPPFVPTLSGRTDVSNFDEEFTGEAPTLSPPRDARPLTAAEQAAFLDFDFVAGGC", "test": "Inhibition of PKN1 (unknown origin) at 10 uM by Ambit Kinomescan binding assay"}, "[6]": {"target": "Serine/threonine-protein kinase DCLK2 (Homo sapiens) (UniProt Q8N568)", "sequence (Q8N568 whole entry)": "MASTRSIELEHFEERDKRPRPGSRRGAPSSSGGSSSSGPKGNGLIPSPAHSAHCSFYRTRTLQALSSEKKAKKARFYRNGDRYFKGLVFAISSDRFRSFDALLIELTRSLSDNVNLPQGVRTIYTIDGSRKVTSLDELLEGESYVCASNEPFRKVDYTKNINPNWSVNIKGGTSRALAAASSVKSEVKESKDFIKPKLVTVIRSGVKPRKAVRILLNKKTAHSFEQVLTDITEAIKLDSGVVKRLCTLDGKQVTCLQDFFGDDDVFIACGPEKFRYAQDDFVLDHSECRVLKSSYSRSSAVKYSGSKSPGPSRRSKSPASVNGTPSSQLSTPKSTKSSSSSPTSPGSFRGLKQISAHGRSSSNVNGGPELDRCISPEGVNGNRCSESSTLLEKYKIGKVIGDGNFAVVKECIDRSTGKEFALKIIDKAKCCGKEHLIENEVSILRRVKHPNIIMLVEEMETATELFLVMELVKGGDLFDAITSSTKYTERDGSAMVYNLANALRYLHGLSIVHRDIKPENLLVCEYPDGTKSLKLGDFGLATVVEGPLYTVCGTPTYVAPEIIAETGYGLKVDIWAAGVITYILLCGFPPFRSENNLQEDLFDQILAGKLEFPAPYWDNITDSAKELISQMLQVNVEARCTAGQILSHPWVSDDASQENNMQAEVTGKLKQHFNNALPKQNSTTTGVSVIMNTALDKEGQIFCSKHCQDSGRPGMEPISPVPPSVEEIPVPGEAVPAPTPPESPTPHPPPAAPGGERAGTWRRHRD", "test": "Inhibition of DCAMKL2 (unknown origin) at 10 uM by Ambit Kinomescan binding assay"}, "[7]": {"target": "Dual specificity tyrosine-phosphorylation-regulated kinase 1B (Homo sapiens) (UniProt Q9Y463)", "sequence (Q9Y463 whole entry, looked up)": "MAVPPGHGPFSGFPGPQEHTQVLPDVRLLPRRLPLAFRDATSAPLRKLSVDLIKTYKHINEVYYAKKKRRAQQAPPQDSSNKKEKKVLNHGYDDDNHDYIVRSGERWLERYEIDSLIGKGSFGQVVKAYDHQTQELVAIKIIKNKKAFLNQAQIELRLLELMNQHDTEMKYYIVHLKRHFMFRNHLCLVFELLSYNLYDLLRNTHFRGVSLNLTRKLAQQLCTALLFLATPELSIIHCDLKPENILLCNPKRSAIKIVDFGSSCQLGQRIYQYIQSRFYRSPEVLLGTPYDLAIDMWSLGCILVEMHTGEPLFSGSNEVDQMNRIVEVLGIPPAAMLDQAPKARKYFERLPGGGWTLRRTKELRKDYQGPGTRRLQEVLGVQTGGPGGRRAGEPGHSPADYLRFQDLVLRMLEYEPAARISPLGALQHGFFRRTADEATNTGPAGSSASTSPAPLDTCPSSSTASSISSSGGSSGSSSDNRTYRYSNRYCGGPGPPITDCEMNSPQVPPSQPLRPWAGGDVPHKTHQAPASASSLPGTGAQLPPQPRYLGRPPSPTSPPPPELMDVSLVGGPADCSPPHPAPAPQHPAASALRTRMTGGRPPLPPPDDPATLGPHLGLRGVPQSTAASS", "test": "Inhibition of DYRK1B (unknown origin) at 10 uM by Ambit Kinomescan binding assay"}, "[8]": {"target": "Casein kinase I isoform gamma-3 (Homo sapiens) (UniProt Q9Y6M4)", "sequence (Q9Y6M4 whole entry, looked up, canonical isoform)": "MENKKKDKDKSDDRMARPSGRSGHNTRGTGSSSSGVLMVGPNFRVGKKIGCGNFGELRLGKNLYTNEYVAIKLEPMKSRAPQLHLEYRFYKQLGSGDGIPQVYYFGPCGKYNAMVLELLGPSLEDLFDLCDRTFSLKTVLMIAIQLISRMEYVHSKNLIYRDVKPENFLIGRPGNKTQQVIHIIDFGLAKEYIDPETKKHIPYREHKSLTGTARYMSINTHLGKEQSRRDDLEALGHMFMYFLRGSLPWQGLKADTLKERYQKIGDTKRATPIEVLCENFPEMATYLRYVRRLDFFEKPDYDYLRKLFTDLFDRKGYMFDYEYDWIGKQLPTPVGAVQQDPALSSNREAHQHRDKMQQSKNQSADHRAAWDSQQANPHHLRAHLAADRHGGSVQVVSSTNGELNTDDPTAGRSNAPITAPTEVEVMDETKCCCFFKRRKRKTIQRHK", "test": "Inhibition of CSNK1G3 (unknown origin) at 10 uM by Ambit Kinomescan binding assay"}, "[9]": {"target": "Protein kinase C beta type (Homo sapiens) (UniProt P05771)", "test": "Inhibition of PKCb Lys2 labeling site in human Huh-7 cells at 1 uM by KiNativ Profiling analysis relative to control", "assay_type": "cell-based"}, "[10]": {"target": "Serine/threonine-protein kinase Nek6 (Homo sapiens) (UniProt Q9HC98)", "sequence (Q9HC98 whole entry)": "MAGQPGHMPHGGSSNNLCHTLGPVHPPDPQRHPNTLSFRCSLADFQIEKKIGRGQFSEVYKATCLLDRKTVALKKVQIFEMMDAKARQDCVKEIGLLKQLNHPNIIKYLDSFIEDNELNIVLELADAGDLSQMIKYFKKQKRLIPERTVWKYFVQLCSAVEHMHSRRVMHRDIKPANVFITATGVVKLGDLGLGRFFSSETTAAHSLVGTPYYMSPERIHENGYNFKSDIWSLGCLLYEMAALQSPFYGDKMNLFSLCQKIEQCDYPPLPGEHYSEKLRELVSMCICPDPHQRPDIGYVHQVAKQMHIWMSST", "test": "Inhibition of NEK6 Lys2 labeling site harbouring VMHRDIKPANVFITATGVVK in human Huh-7 cells at 1 uM by KiNativ Profiling analysis relative to control", "assay_type": "cell-based"}, "[11]": {"test": "Inhibition of p70S6K ATP Loop labeling site in human Huh-7 cells at 1 uM by KiNativ Profiling analysis relative to control", "settings": "condition cancer"}}, "note": "Calls of active or inactive are those of the source. No cut-off for these calls is given here.", "data": [{"smiles": "CCN1CCN(Cc2ccc(NC(=O)c3ccc(C)c(/C=C/c4cnc5[nH]ccc5c4OC)c3)cc2C(F)(F)F)CC1", "values": [{"measurement": "residual activity", "setting": "[1]", "result": 55, "unit": "%"}, {"measurement": "inhibition", "setting": "[2]", "result": 28.5, "unit": "%"}]}, {"smiles": "CCN1CCN(Cc2ccc(NC(=O)c3ccc(C)c(Oc4ccnc5[nH]ccc45)c3)cc2C(F)(F)F)CC1", "values": [{"measurement": "inhibition", "setting": "[3]", "result": 11, "unit": "%"}, {"measurement": "inhibition", "setting": "[4]", "result": "inactive"}, {"measurement": "inhibition", "setting": "[5]", "result": "inactive"}, {"measurement": "inhibition", "setting": "[6]", "result": "inactive"}, {"measurement": "inhibition", "setting": "[7]", "result": "inactive"}, {"measurement": "inhibition", "setting": "[8]", "result": "inactive"}]}, {"smiles": "CNc1cc(Oc2cc(C(=O)Nc3cc(N4CCN(C)CC4)cc(C(F)(F)F)c3)ccc2C)ncn1", "values": [{"measurement": "inhibition", "setting": "[9]", "result": 64.8, "unit": "%"}, {"measurement": "inhibition", "setting": "[10]", "result": 6.9, "unit": "%"}, {"measurement": "inhibition at 1 µM", "setting": "[11]", "result": -44.2, "unit": "%"}]}]}
